According to the supplement of paper PMC10307832:

Key:
Assay in all cases: relative viability (nuclei count vs DMSO), 5 days (fraction); higher = more cells survive
Obatoclax + Pemetrexed = compound: COC1=CC(c2cc3ccccc3[nH]2)=N/C1=C\c1[nH]c(C)cc1C [Obatoclax] + Nc1nc2[nH]cc(CCc3ccc(C(=O)N[C@@H](CCC(=O)O)C(=O)O)cc3)c2c(=O)[nH]1 [Pemetrexed] (partner 0.2 µM)
In short: (§1)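 One day after seeding in 1536-well plates, lung cancer cell lines were dosed by pin tool. Dosing was either single-drug or a fixed anchor-drug dose plus five library-drug doses (not always all listed) in √10 steps. After 5 days, nuclei were stained in one fix-and-stain step and counted on 4× images, and relative viability is the nuclei count of treated wells over that of vehicle wells, given as the median of duplicate plates.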

Bortezomib + Pictilisib = compound: CC(C)C[C@H](NC(=O)[C@H](Cc1ccccc1)NC(=O)c1cnccn1)B(O)O [Bortezomib] + CS(=O)(=O)N1CCN(Cc2cc3nc(-c4cccc5[nH]ncc45)nc(N4CCOCC4)c3s2)CC1 [Pictilisib] (partner 1 µM)
In short: as §1

Obatoclax + Pictilisib = compound: COC1=CC(c2cc3ccccc3[nH]2)=N/C1=C\c1[nH]c(C)cc1C [Obatoclax] + CS(=O)(=O)N1CCN(Cc2cc3nc(-c4cccc5[nH]ncc45)nc(N4CCOCC4)c3s2)CC1 [Pictilisib] (partner 1 µM)
In short: as §1

[1] = compound: CC1=CC(=NN1)NC2=CC(=NC(=N2)/C=C/C3=CC=CC=C3)N4CCN(CC4)C + Nc1ncn([C@H]2C[C@H](O)[C@@H](CO)O2)c(=O)n1 [Decitabine] (partner 2 µM)
In short: as §1

With NCI-H1651 the relative viability (Obatoclax + Pemetrexed; first compound 0.01 µM) was 0.591, the relative viability (Obatoclax + Pemetrexed; first compound 0.03162 µM) was 0.439 and the relative viability (Obatoclax + Pemetrexed; first compound 0.1 µM) was 0.528. It also gave a relative viability (Obatoclax + Pemetrexed; first compound 0.3162 µM) of 0.373, a relative viability (Obatoclax + Pemetrexed; first compound 1 µM) of 0.603 and a relative viability (Bortezomib + Pictilisib; first compound 0.0002 µM) of 0.406. The relative viability (Bortezomib + Pictilisib; first compound 0.000632 µM) was 0.532, the relative viability (Bortezomib + Pictilisib; first compound 0.002 µM) was 0.591 and the relative viability (Bortezomib + Pictilisib; first compound 0.006325 µM) was 0.0909. The relative viability (Bortezomib + Pictilisib; first compound 0.02 µM) was 0.0929, the relative viability (Obatoclax + Pictilisib; first compound 0.01 µM) was 0.58 and the relative viability (Obatoclax + Pictilisib; first compound 0.03162 µM) was 0.567. The relative viability (Obatoclax + Pictilisib; first compound 0.1 µM) was 0.634, the relative viability (Obatoclax + Pictilisib; first compound 0.3162 µM) was 0.256 and the relative viability (Obatoclax + Pictilisib; first compound 1 µM) was 0.188. It also gave a relative viability ([1]; first compound 0.08 µM) of 0.356, a relative viability ([1]; first compound 0.253 µM) of 0.597 and a relative viability ([1]; first compound 0.8 µM) of 0.613. For the same cell line, the relative viability ([1]; first compound 2.53 µM) was 0.322 and the relative viability ([1]; first compound 8 µM) was 0.132.
NCI-H1666 gave a relative viability (Obatoclax + Pemetrexed; first compound 0.01 µM) of 0.835, a relative viability (Obatoclax + Pemetrexed; first compound 0.03162 µM) of 0.775 and a relative viability (Obatoclax + Pemetrexed; first compound 0.1 µM) of 0.823. It also gave a relative viability (Obatoclax + Pemetrexed; first compound 0.3162 µM) of 0.725, a relative viability (Obatoclax + Pemetrexed; first compound 1 µM) of 0.633 and a relative viability (Bortezomib + Pictilisib; first compound 0.0002 µM) of 0.451. For the same cell line, the relative viability (Bortezomib + Pictilisib; first compound 0.000632 µM) was 0.518, the relative viability (Bortezomib + Pictilisib; first compound 0.002 µM) was 0.41 and the relative viability (Bortezomib + Pictilisib; first compound 0.006325 µM) was 0.198. For the same cell line, the relative viability (Bortezomib + Pictilisib; first compound 0.02 µM) was 0.168, the relative viability (Obatoclax + Pictilisib; first compound 0.01 µM) was 0.398 and the relative viability (Obatoclax + Pictilisib; first compound 0.03162 µM) was 0.531. For the same cell line, the relative viability (Obatoclax + Pictilisib; first compound 0.1 µM) was 0.479, the relative viability (Obatoclax + Pictilisib; first compound 0.3162 µM) was 0.188 and the relative viability (Obatoclax + Pictilisib; first compound 1 µM) was 0.196. It also gave a relative viability ([1]; first compound 0.08 µM) of 0.574, a relative viability ([1]; first compound 0.253 µM) of 0.682 and a relative viability ([1]; first compound 0.8 µM) of 0.749. It also gave a relative viability ([1]; first compound 2.53 µM) of 0.719 and a relative viability ([1]; first compound 8 µM) of 0.584.
In the case of NCI-H1734, the relative viability (Obatoclax + Pemetrexed; first compound 0.01 µM) is reported as 0.419, the relative viability (Obatoclax + Pemetrexed; first compound 0.03162 µM) is reported as 0.427 and the relative viability (Obatoclax + Pemetrexed; first compound 0.1 µM) is reported as 0.359. For the same cell line, the relative viability (Obatoclax + Pemetrexed; first compound 0.3162 µM) was 0.415, the relative viability (Obatoclax + Pemetrexed; first compound 1 µM) was 0.364 and the relative viability (Bortezomib + Pictilisib; first compound 0.0002 µM) was 0.483. For the same cell line, the relative viability (Bortezomib + Pictilisib; first compound 0.000632 µM) was 0.301, the relative viability (Bortezomib + Pictilisib; first compound 0.002 µM) was 0.36 and the relative viability (Bortezomib + Pictilisib; first compound 0.006325 µM) was 0.224. The relative viability (Bortezomib + Pictilisib; first compound 0.02 µM) was 0.128, the relative viability (Obatoclax + Pictilisib; first compound 0.01 µM) was 0.466 and the relative viability (Obatoclax + Pictilisib; first compound 0.03162 µM) was 0.457. For the same cell line, the relative viability (Obatoclax + Pictilisib; first compound 0.3162 µM) was 0.361, the relative viability (Obatoclax + Pictilisib; first compound 1 µM) was 0.229 and the relative viability ([1]; first compound 0.08 µM) was 0.515. For the same cell line, the relative viability ([1]; first compound 0.253 µM) was 0.531, the relative viability ([1]; first compound 0.8 µM) was 0.544 and the relative viability ([1]; first compound 2.53 µM) was 0.362. For the same cell line, the relative viability ([1]; first compound 8 µM) was 0.16.
In the case of NCI-H1755, the relative viability (Obatoclax + Pemetrexed; first compound 0.01 µM) is reported as 0.444, the relative viability (Obatoclax + Pemetrexed; first compound 0.03162 µM) is reported as 0.612 and the relative viability (Obatoclax + Pemetrexed; first compound 0.1 µM) is reported as 0.433. The relative viability (Obatoclax + Pemetrexed; first compound 0.3162 µM) was 0.413, the relative viability (Obatoclax + Pemetrexed; first compound 1 µM) was 0.452 and the relative viability (Bortezomib + Pictilisib; first compound 0.0002 µM) was 0.441. The relative viability (Bortezomib + Pictilisib; first compound 0.000632 µM) was 0.322, the relative viability (Bortezomib + Pictilisib; first compound 0.002 µM) was 0.43 and the relative viability (Bortezomib + Pictilisib; first compound 0.006325 µM) was 0.171. The relative viability (Bortezomib + Pictilisib; first compound 0.02 µM) was 0.137, the relative viability (Obatoclax + Pictilisib; first compound 0.01 µM) was 0.475 and the relative viability (Obatoclax + Pictilisib; first compound 0.03162 µM) was 0.383. For the same cell line, the relative viability (Obatoclax + Pictilisib; first compound 0.1 µM) was 0.386, the relative viability (Obatoclax + Pictilisib; first compound 0.3162 µM) was 0.357 and the relative viability (Obatoclax + Pictilisib; first compound 1 µM) was 0.269. The relative viability ([1]; first compound 0.08 µM) was 0.707, the relative viability ([1]; first compound 0.253 µM) was 0.65 and the relative viability ([1]; first compound 0.8 µM) was 0.733. It also gave a relative viability ([1]; first compound 2.53 µM) of 0.663 and a relative viability ([1]; first compound 8 µM) of 0.428.
For NCI-H1792, the relative viability (Obatoclax + Pemetrexed; first compound 0.01 µM) was 0.909, the relative viability (Obatoclax + Pemetrexed; first compound 0.03162 µM) was 0.58 and the relative viability (Obatoclax + Pemetrexed; first compound 0.1 µM) was 0.459. It also gave a relative viability (Obatoclax + Pemetrexed; first compound 0.3162 µM) of 0.799, a relative viability (Obatoclax + Pemetrexed; first compound 1 µM) of 0.386 and a relative viability (Bortezomib + Pictilisib; first compound 0.0002 µM) of 0.29. The relative viability (Bortezomib + Pictilisib; first compound 0.000632 µM) was 0.21, the relative viability (Bortezomib + Pictilisib; first compound 0.002 µM) was 0.192 and the relative viability (Bortezomib + Pictilisib; first compound 0.006325 µM) was 0.306. For the same cell line, the relative viability (Bortezomib + Pictilisib; first compound 0.02 µM) was 0.175, the relative viability (Obatoclax + Pictilisib; first compound 0.01 µM) was 0.31 and the relative viability (Obatoclax + Pictilisib; first compound 0.03162 µM) was 0.26. It also gave a relative viability (Obatoclax + Pictilisib; first compound 0.3162 µM) of 0.281, a relative viability (Obatoclax + Pictilisib; first compound 1 µM) of 0.377 and a relative viability ([1]; first compound 0.08 µM) of 0.435. The relative viability ([1]; first compound 0.253 µM) was 0.556, the relative viability ([1]; first compound 0.8 µM) was 0.377 and the relative viability ([1]; first compound 2.53 µM) was 0.332. For the same cell line, the relative viability ([1]; first compound 8 µM) was 0.0377.
NCI-H1793 was tested, and the relative viability (Obatoclax + Pemetrexed; first compound 0.01 µM) was 0.91, the relative viability (Obatoclax + Pemetrexed; first compound 0.03162 µM) was 0.924 and the relative viability (Obatoclax + Pemetrexed; first compound 0.1 µM) was 0.727. For the same cell line, the relative viability (Obatoclax + Pemetrexed; first compound 0.3162 µM) was 0.838, the relative viability (Obatoclax + Pemetrexed; first compound 1 µM) was 0.878 and the relative viability (Bortezomib + Pictilisib; first compound 0.0002 µM) was 0.282. It also gave a relative viability (Bortezomib + Pictilisib; first compound 0.000632 µM) of 0.305, a relative viability (Bortezomib + Pictilisib; first compound 0.002 µM) of 0.297 and a relative viability (Bortezomib + Pictilisib; first compound 0.006325 µM) of 0.269. For the same cell line, the relative viability (Bortezomib + Pictilisib; first compound 0.02 µM) was 0.18, the relative viability (Obatoclax + Pictilisib; first compound 0.01 µM) was 0.288 and the relative viability (Obatoclax + Pictilisib; first compound 0.03162 µM) was 0.306. It also gave a relative viability (Obatoclax + Pictilisib; first compound 0.1 µM) of 0.388, a relative viability (Obatoclax + Pictilisib; first compound 0.3162 µM) of 0.297 and a relative viability (Obatoclax + Pictilisib; first compound 1 µM) of 0.296. For the same cell line, the relative viability ([1]; first compound 0.08 µM) was 0.488, the relative viability ([1]; first compound 0.253 µM) was 0.554 and the relative viability ([1]; first compound 0.8 µM) was 0.43. For the same cell line, the relative viability ([1]; first compound 2.53 µM) was 0.127 and the relative viability ([1]; first compound 8 µM) was 0.123.
Cell Line NCI-H1915 has a relative viability (Obatoclax + Pemetrexed; first compound 0.01 µM) of 0.486, a relative viability (Obatoclax + Pemetrexed; first compound 0.03162 µM) of 0.496 and a relative viability (Obatoclax + Pemetrexed; first compound 0.1 µM) of 0.482. The relative viability (Obatoclax + Pemetrexed; first compound 0.3162 µM) was 0.535, the relative viability (Obatoclax + Pemetrexed; first compound 1 µM) was 0.517 and the relative viability (Bortezomib + Pictilisib; first compound 0.0002 µM) was 0.808. For the same cell line, the relative viability (Bortezomib + Pictilisib; first compound 0.000632 µM) was 0.941, the relative viability (Bortezomib + Pictilisib; first compound 0.002 µM) was 1.14 and the relative viability (Bortezomib + Pictilisib; first compound 0.006325 µM) was 0.685. The relative viability (Bortezomib + Pictilisib; first compound 0.02 µM) was 0.144, the relative viability (Obatoclax + Pictilisib; first compound 0.01 µM) was 0.967 and the relative viability (Obatoclax + Pictilisib; first compound 0.03162 µM) was 0.823. The relative viability (Obatoclax + Pictilisib; first compound 0.1 µM) was 0.968, the relative viability (Obatoclax + Pictilisib; first compound 0.3162 µM) was 0.989 and the relative viability (Obatoclax + Pictilisib; first compound 1 µM) was 0.933. The relative viability ([1]; first compound 0.08 µM) was 0.241, the relative viability ([1]; first compound 0.253 µM) was 0.273 and the relative viability ([1]; first compound 0.8 µM) was 0.261. It also gave a relative viability ([1]; first compound 2.53 µM) of 0.238 and a relative viability ([1]; first compound 8 µM) of 0.168.
